Earlier results, collected in patent US20060182729A1, “Combat/training antioxidant micronutrient formulation and method of administration” (priority 2005, published 2006).

Key:
[1] = oral supplementation, human subjects
[2] = tested on: mutagens in the small intestine; details: supplementation

Row | Structure (SMILES) | plasma levels of glutathione [1] | formation of mutagens in the small intestine [2]
1 | N[C@@H](CCC(=O)N[C@@H](CS)C(=O)NCC(=O)O)C(=O)O [glutathione] | failed to significantly increase | –
2 | O=C1O[C@H]([C@@H](O)CO)C(O)=C1O [vitamin C, ascorbic acid] | – | reduces
